Experimental findings from paper PMC11053151, “Anti-inflammatory and anti-diabetic properties of indanone derivative isolated from Fernandoa adenophylla in vitro and in silico studies” (Scientific Reports, 2024) are described below.

Structures are written as SMILES.

Assay [1] concerns the target T1, α-amylase (porcine pancreatic amylase) (Sus scrofa, UniProt P00690).
T1 construct: gene AMY2
T1 sequence (P00690 16-511): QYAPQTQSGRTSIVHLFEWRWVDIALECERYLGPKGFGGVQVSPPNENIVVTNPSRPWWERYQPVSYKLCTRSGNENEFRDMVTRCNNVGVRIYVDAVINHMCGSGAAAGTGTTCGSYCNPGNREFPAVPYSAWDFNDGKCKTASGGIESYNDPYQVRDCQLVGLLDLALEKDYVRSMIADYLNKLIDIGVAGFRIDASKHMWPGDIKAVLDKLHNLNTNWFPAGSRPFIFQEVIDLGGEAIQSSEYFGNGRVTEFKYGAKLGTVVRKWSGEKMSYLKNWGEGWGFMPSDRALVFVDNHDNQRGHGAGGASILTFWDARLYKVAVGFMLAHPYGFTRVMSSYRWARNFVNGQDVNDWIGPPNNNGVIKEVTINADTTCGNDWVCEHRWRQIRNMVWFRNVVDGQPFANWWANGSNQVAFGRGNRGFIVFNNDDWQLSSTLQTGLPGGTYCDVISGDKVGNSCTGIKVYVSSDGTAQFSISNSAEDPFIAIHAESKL
The experiment in a line: starch hydrolysis / dinitrosalicylate colorimetric alpha-amylase inhibition assay. The format is biochemical.

For assay [2], the target named is T1, α-amylase (porcine pancreatic amylase). The experiment in a line: starch hydrolysis / dinitrosalicylate colorimetric alpha-amylase inhibition assay; percent inhibition at […] µg. The format is biochemical.

`COC(=O)[C@@]1(O)c2ccccc2C(=O)[C@]1(O)CC=C(C)C` [indanone derivative, methyl (1R trans, 2S trans)-1,2-dihydroxy-2-(3-methylbut-2-en-1-yl)-3-oxo-2,3-dihydro-1H-indene-1-carboxylate] yielded an IC50 in assay [1] of 46.4 µM. This lies in the double-digit micromolar range.
Regarding `C[C@H]1O[C@H](O[C@H]2[C@H](O)[C@@H](O)[C@@H](O[C@H]3[C@H](O)[C@@H](O)C(O)O[C@@H]3CO)O[C@@H]2CO)[C@H](O)[C@@H](O)[C@@H]1N[C@H]1C=C(CO)[C@@H](O)[C@H](O)[C@H]1O` (some centres unmarked) [acarbose], the “%” value in assay [2] was determined as 87.08 ± 1.328%.
